Test results taken from patent EP0549352B1, “Tricyclic compounds as angiotensin II antagonists” (KYOWA HAKKO KOGYO CO., LTD., priority 1991, dated 1993).

Target: T1, AII receptor (Bos taurus, UniProt P25104)
T1 construct: Tissue of bovine adrenal cortex was finely cut and suspended; from tissue; host or cells: bovine adrenal cortex membrane fraction
T1 sequence (P25104 1-359): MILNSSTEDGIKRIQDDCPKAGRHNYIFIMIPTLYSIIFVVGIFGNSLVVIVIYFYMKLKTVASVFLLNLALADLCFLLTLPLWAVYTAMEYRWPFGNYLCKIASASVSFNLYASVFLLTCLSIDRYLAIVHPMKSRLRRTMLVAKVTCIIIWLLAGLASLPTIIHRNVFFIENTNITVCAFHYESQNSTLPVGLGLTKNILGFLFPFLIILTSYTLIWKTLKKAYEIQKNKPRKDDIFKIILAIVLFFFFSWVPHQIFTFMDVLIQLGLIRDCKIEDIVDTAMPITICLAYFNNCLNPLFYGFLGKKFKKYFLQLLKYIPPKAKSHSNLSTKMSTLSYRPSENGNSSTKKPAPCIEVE
Experiment: Receptor binding test using bovine adrenal cortex ([125I]AII binding)
Settings: test compound 0.1 µM; receptor binding of [125I]AII (2.5 × 10^-10M); bovine adrenal cortex membranes; room temperature, 2 hours; 0.1 µM
Description: Receptor binding test using bovine adrenal cortex
Tissue of bovine adrenal cortex was finely cut and suspended in a 0.25M sucrose solution containing NaHCO3, ethylenediaminetetraacetic acid (EDTA), leupepsin, pepstatin A and phenylmethanesulfonyl fluoride, followed by homogenization. The homogenate was centrifuged at 3,000 rpm for 10 minutes and the supernatant was centrifuged at 9,000 rpm. Then, the supernatant was further centrifuged at 30,000 rpm for 60 minutes and the precipitate was suspended in NaHCO3-EDTA solution, followed by centrifugation at 30,000 rpm for 60 minutes. The resulting precipitate was suspended in a phosphate buffer and the suspension was used for the binding test as an AII receptor source.
To a test compound or a solvent were added 250 µl of the AII receptor solution prepared above, 250 µl of Tris 50 mM buffer containing 0.2% bovine serum albumin (BSA), and 20 µl of [^125I]AII (2.5 × 10^-10M). The mixture was allowed to stand at room temperature for 2 hours and then filtered through a glass fiber filter (GF/B Wattman). The filter was placed in a test tube and the radioactivity was measured using a gamma-counter.
The inhibitory activity (inhibition rate) of the test compound (0.1 µM) against the receptor binding of [^125I]AII was calculated by the following equation. Inhibition Rate (%) =(1-((Binding Amount in the Presence of a Test Compound)-(Nonspecific Binding Amount))/((Total Binding Amount)-(Nonspecific Binding Amount)))× 100 [formula]
The binding amount in the presence of a test compound is the amount of radioactivity of [^125I]AII bound in the presence of a test compound (0.1 µM).
The total binding amount is the amount of radioactivity of [^125I]AII bound in the absence of a test compound.
The nonspecific binding amount is the amount of radioactivity of [^125I]AII bound in the presence of 1 µM AII.

Row | Inhibition Rate (%) | SMILES
1 | 88% | CCc1nc2c(C)cc(C)nc2n1Cc1ccc2c(c1)CCc1ccccc1C2=Cc1nnn[nH]1 (single isomer, unassigned) [Compound 20B, 2-(5,7-Dimethyl-2-ethyl-3H-imidazo[4,5-b]pyridin-3-yl)methyl-5-(1H-tetrazol-5-yl)methylene-5H-10,11-dihydrodibenzo[a,d]cycloheptene]
2 | 87% | CCc1nc2c(C)cc(C)nc2n1Cc1ccc2c(c1)OCc1ccccc1C2=Cc1nnn[nH]1 [Compound 6-E, 3-(5,7-Dimethyl-2-ethyl-3H-imidazo[4,5-b]pyridin-3-yl)methyl-11-(1H-tetrazol-5-yl)methylene-6,11-dihydrodibenz[b,e]oxepine]

Same assay, conditions: test compound 0.1 µM; receptor binding of [125I]AII (2.5 × 10^-10M); bovine adrenal cortex membranes; room temperature, 2 hours; listed as 6-Z*, 0.1 µM

Row | Inhibition Rate (%) | SMILES
3 | 66% | CCc1nc2c(C)cc(C)nc2n1Cc1ccc2c(c1)OCc1ccccc1C2=Cc1nnn[nH]1 [Compound 6-Z, 3-(5,7-Dimethyl-2-ethyl-3H-imidazo[4,5-b]pyridin-3-yl)methyl-11-(1H-tetrazol-5-yl)methylene-6,11-dihydrodibenz[b,e]oxepine]

Same assay, conditions: test compound 0.1 µM; receptor binding of [125I]AII (2.5 × 10^-10M); bovine adrenal cortex membranes; room temperature, 2 hours; read-out: Inhibition Rate (%)

Row | inhibition at 0.1 µM | SMILES
4 | 70% | CCc1nc2c(C)cc(C)nc2n1Cc1ccc2c(c1)CCc1ccccc1C2=Cc1nnn[nH]1 (single isomer, unassigned) [Compound 20A, 2-(5,7-Dimethyl-2-ethyl-3H-imidazo[4,5-b]pyridin-3-yl)methyl-5-(1H-tetrazol-5-yl)methylene-5H-10,11-dihydrodibenzo[a,d]cycloheptene]
5 | 43% | CCCc1nc2c(C)cccc2n1Cc1ccc2c(c1)OCc1ccccc1C2=CC(=O)O [Compound 1, [3-(4-Methyl-2-propylbenzimidazol-1-yl)methyl-6,11-dihydrodibenz[b,e]oxepin-11-yliden]acetic acid]
6 | 78% | CCc1nc2c(C)cc(C)nc2n1Cc1ccc2c(c1)OCc1ccccc1C2=CC(=O)O [Compound 3, [3-(5,7-Dimethyl-2-ethyl-3H-imidazo[4,5-b]pyridin-3-yl)methyl-6,11-dihydrodibenz[b,e]oxepin-11-yliden]acetic acid]
7 | 77% | CCc1nc2c(C)cc(C)nc2n1Cc1ccc2c(c1)C=Cc1ccc(F)cc1C2=CC(=O)O [Compound 4, [2-(5,7-Dimethyl-2-ethyl-3H-imidazo[4,5-b]pyridin-3-yl)methyl-7-fluoro-5H-dibenzo[a,d]cyclohepten-5-yliden]acetic acid]
8 | 52% | CCc1nc2c(C)cc(C)nc2n1Cc1ccc2c(c1)OCc1ccc(Br)cc1C2=CC(=O)O [Compound 7, [9-Bromo-3-(5,7-dimethyl-2-ethyl-3H-imidazo[4,5-b]pyridin-3-yl)methyl-6,11-dihydrodibenz[b,e]oxepin-11-yliden]acetic acid]
9 | 84% | CCc1nc2c(C)cc(C)nc2n1Cc1ccc2c(c1)OCc1ccsc1C2=CC(=O)O [Compound 11, [7-(5,7-Dimethyl-2-ethyl-3H-imidazo[4,5-b]pyridin-3-yl)methyl-4,10-dihydrothieno[3,2-c][1]benzoxepin-10-yliden]acetic acid]
10 | 72% | CCc1nc2c(C)cc(C)nc2n1Cc1ccc2c(c1)C=Cc1sccc1C2=CC(=O)O [Compound 12, [7-(5,7-Dimethyl-2-ethyl-3H-imidazo[4,5-b]pyridin-3-yl)methyl-4H-benzo[4,5]cyclohepte[1,2-b]thiophen-4-yliden]acetic acid]
11 | 91% | CCc1nc2c(C)cc(C)nc2n1Cc1ccc2c(c1)CCc1ccccc1C2=CC(=O)O [Compound 16, [2-(5,7-Dimethyl-2-ethyl-3H-imidazo[4,5-b]pyridin-3-yl)methyl-5H-10,11-dihydrodibenzo[a,d]cyclohepten-5-yliden]acetic acid]
12 | 81% | CCc1nc2c(C)cc(C)nc2n1Cc1ccc2c(c1)COc1ccccc1C2=Cc1nnn[nH]1 [Compound 18-Z, 8-(5,7-Dimethyl-2-ethyl-3H-imidazo[4,5-b]pyridin-3-yl)methyl-11-(1H-tetrazol-5-yl)methylene-6,11-dihydrodibenz[b,e]oxepine]
13 | 14% | CCc1nc2c(C)cc(C)nc2n1Cc1ccc2c(c1)C=Cc1c(Br)cccc1C2=Cc1nnn[nH]1 [Compound 19, 1-Bromo-8-(5,7-dimethyl-2-ethyl-3H-imidazo[4,5-b]pyridin-3-yl)methyl-5-(1H-tetrazol-5-yl)methylene-5H-dibenzo[a,d]cycloheptene]
14 | 80% | CCc1nc2c(C)cc(C)nc2n1Cc1ccc2c(c1)SCc1ccccc1C2=Cc1nnn[nH]1 [Compound 22-E, 3-(5,7-Dimethyl-2-ethyl-3H-imidazo[4,5-b]pyridin-3-yl)methyl-11-(1H-tetrazol-5-yl)methylene-6,11-dihydrodibenzo[b,e]thiepine]
15 | 61% | CCc1nc2c(C)cc(C)nc2n1Cc1ccc2c(c1)OCc1ccccc1C2CC(=O)O (centres unmarked) [Compound 23, [3-(5,7-Dimethyl-2-ethyl-3H-imidazo[4,5-b]pyridin-3-yl)methyl-6,11-dihydrodibenz[b,e]oxepin-11-yl]acetic acid]
16 | 94% | CCc1nc2c(C)cc(C)nc2n1Cc1ccc2c(c1)OCc1ccccc1C2Cc1nnn[nH]1 (centres unmarked) [Compound 25, 3-(5,7-Dimethyl-2-ethyl-3H-imidazo[4,5-b]pyridin-3-yl)methyl-11-(1H-tetrazol-5-yl)methyl-6,11-dihydrodibenz[b,e]oxepine]
17 | 83% | CCc1nc2c(C)cc(C)nc2n1Cc1ccc2c(c1)CCc1ccccc1C2Cc1nnn[nH]1 (centres unmarked) [Compound 28, 2-(5,7-Dimethyl-2-ethyl-3H-imidazo[4,5-b]pyridin-3-yl)methyl-5-(1H-tetrazol-5-yl)methyl-5H-10,11-dihydrodibenzo[a,d]cycloheptene]
18 | 92% | Cc1cc(C)c2nc(C3CC3)n(Cc3ccc4c(c3)CCc3ccccc3C4Cc3nnn[nH]3)c2n1 (centres unmarked) [Compound 29, 2-(5,7-Dimethyl-2-cyclopropyl-3H-imidazo[4,5-b]pyridin-3-yl)methyl-5-(1H-tetrazol-5-yl)methyl-5H-10,11-dihydrodibenzo[a,d]cycloheptene]
19 | 88% | CCc1nc2c(C)cc(C)nc2n1Cc1ccc2c(c1)CCc1ccccc1N2CC(=O)O [Compound 33, 5-Carboxymethyl-2-(5,7-dimethyl-2-ethyl-3H-imidazo[4,5-b]pyridin-3-yl)methyl-5H-10,11-dihydrodibenz[b,f]azepine]
20 | 97% | Cc1cc(C)c2nc(C3CC3)n(Cc3ccc4c(c3)CCc3ccccc3N4Cc3nnn[nH]3)c2n1 [Compound 34, 2-(5,7-Dimethyl-2-cyclopropyl-3H-imidazo[4,5-b]pyridin-3-yl)methyl-5-(1H-tetrazol-5-yl)methyl-5H-10,11-dihydrodibenz[b,f]azepine]
21 | 68% | CCc1nc2c(C)cc(C)nc2n1Cc1ccc2c(c1)CCc1ccccc1N2Cc1ccccc1C(=O)O [Compound 38, 2-[[2-(5,7-Dimethyl-2-ethyl-3H-imidazo[4,5-b]pyridin-3-yl)methyl-5H-10,11-dihydrodibenz[b,f]azepin-5-yl]methyl]benzoic acid]
22 | 95% | CCCCC(=O)N(Cc1ccc2c(c1)CCc1ccccc1N2Cc1nnn[nH]1)C(C(=O)O)C(C)C (centres unmarked) [Compound 40, N-[[5-(1H-Tetrazol-5-yl)methyl-5H-10,11-dihydrodibenz[b,f]azepin-2-yl]methyl]-N-valerylvaline]
23 | 85% | CCc1nc2c(C)cc(C)nc2n1Cc1ccc2c(c1)c1ccccc1n2CCc1nnn[nH]1 [Compound 42, 3-(5,7-Dimethyl-2-ethyl-3H-imidazo[4,5-b]pyridin-3-yl)methyl-9-[2-(1H-tetrazol-5-yl)ethyl]carbazole]
